Broadly, the pIC50 is −log10 of the IC50, conventionally taken in molar units. A higher pIC50 goes with a low IC50.

pIC50: −log10 of the molar value.

In the first assay the target is T1, HPK1 (Homo sapiens, UniProt Q92918).
T1 sequence (Q92918 1-346): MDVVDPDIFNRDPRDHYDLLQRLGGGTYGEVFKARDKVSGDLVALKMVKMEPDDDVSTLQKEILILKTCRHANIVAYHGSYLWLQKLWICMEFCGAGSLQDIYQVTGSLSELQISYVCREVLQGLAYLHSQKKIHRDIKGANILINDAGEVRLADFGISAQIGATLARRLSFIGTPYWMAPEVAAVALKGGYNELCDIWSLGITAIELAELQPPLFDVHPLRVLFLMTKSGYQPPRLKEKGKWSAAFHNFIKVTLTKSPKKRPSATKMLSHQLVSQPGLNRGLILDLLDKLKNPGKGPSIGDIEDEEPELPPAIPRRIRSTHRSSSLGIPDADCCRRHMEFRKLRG
The assay is described as follows: HPK1 kinase activity assay (ADP-Glo). As to conditions: HPK1 Kinase activity IC50, ADP-Glo; 1 nM HPK1, 10 μM ATP, 0.1 μg/μL MBP. On the technique in general: ADP-Glo turns the ADP formed in a reaction into a luminescent signal.
Experimental: Preparation of buffer: Ix reaction buffer (40 mM Tris-HCl, 20 mM MgCl2, 0.01% Brij35, 50 μM DTT, 0.1 mg/ml BSA) was prepared using sterile water, which was prepared and used on the day of the experiment.
(§1) Preparation of 1000× drug stock plate: a 1000× compound stock plate was prepared. […] The compound stock plate was sealed with a sealing film and stored in a −20° C. refrigerator for later use.
Compound preparation and dosing: the 1000× drug stock plate was taken and melted at room temperature in the dark. Then 5× drug intermediate plate was prepared using reaction buffer and mixed well. 2 μL was transferred from the 5× drug intermediate plate into a 384-well plate, and negative control well and positive control well (in which 2 μL reaction buffer containing 0.5% DMSO was added) were set. Each point was repeated twice.
Preparation and incubation of reaction mixture: HPK1 protein was diluted to a 2.5× working solution with reaction buffer. 4 μL 2.5×HPK1 protein was added to each well containing test compound and positive control well, and 4 μL of reaction buffer without HPK1 protein was added to the negative control well. The obtained mixture was centrifuged at 1000 rpm for 1 min and then incubated in a 20° C. incubator for 15 min. A 2.5× mixed working solution of MBP protein and ATP was prepared with reaction buffer at concentrations of 0.5 μg/μL and 50 μM, respectively. 4 μL of the mixed working solution of MBP and ATP was added to each well, centrifuged at 1000 rpm for 1 min, and then incubated in a 20° C. incubator for 90 min.
ADP-Glo detection and reading plate: 10 μl ADP-Glo was added to each well of the test plate. The resulting mixture was centrifuged at 1000 rpm for 1 min and incubated in a 20° C. incubator for 60 min. Then 10 μL of the final incubation solution was transferred from the test plate to a new 384-well plate. 10 μL of kinase detection reagent was added to each well, centrifuged at 400 g for 1 min, and incubated in a 20° C. incubator for 60 min Chemiluminescent signals were read by a microplate reader.
The compound `Cc1c[nH]c2ncc(-c3cc4c(c(C5COCCN5)c3)CN(C(=O)[C@](C)(O)C(F)(F)F)CC4)cc12` (single isomer, unassigned) [Compound Z309-2] had a negative-log IC50 (pIC50) of 7.64.

A further assay has as its target HPK1 (Homo sapiens, UniProt Q92918). The assay is described as follows: SLP76 phosphorylation assay (intracellular HPK1 inhibitory activity, p-SLP76 S376 ELISA in Jurkat cells). The note with it: p-SLP76 IC50, Jurkat, Clone E6-1 cells; 1 h compound pre-incubation; anti-CD3 beads stimulation 20 min; Phospho-SLP-76 (Ser376) ELISA.
Target sequence in this assay (Q92918 whole entry): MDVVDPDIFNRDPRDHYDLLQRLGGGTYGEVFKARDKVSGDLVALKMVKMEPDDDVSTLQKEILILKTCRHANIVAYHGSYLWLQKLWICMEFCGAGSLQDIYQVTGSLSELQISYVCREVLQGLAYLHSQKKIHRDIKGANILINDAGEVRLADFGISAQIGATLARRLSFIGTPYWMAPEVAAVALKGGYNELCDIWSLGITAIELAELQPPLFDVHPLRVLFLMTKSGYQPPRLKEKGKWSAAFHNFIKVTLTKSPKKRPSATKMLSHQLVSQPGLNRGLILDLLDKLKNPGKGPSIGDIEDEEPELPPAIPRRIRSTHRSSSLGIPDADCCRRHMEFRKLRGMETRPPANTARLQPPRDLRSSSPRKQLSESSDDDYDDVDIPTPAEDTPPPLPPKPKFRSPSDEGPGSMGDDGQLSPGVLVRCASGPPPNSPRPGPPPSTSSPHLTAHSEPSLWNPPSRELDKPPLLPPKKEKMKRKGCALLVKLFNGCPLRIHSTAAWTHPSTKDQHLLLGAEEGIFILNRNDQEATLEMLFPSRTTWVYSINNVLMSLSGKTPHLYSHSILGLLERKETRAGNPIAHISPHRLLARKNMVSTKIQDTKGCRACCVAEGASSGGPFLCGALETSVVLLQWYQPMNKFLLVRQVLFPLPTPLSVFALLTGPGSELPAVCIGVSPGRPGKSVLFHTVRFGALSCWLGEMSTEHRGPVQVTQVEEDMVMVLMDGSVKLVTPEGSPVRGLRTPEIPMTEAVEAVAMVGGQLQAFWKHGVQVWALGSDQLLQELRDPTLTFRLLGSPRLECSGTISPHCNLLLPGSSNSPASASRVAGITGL
Experimental: SLP76 Phosphorylation Assay
Intracellular HPK1 inhibitory activity was tested by the detection of SLP76 phosphorylation at S376.
as §1
Preparation of Beads wash buffer: 0.1 mL FBS and 0.4 mL 0.5 M EDTA (with a final concentration of 2 mM) were added to 100 mL PBS and stored in a 4° C. refrigerator for later use.
100× Protease Inhibitor Cocktail in 1/20 total volume was added and stored on wet ice for later use. The buffer was ready to use.
Cell inoculation and dosing: the 1000× drug stock plate was taken and melted at room temperature in the dark. […] Jurkat cells in the logarithmic growth phase were selected and collected. […] The cells were inoculated into a 96-well plate (the volume was 90 μL per well), and a blank control well (without cells inoculation, and in which 110 μL of medium was added) was set. 10 μL of a drug-containing culture medium (10×) was transferred from the 10× drug intermediate plate into the 96-well cell plate (with a final concentration of 0.1% DMSO), and set a DMSO control group (in which 0.1% DMSO was added to the treated cells), a stimulated control group (in which 10 μL of culture medium was added to treat cells) and an unstimulated group (in which 10 μL of culture medium was added to treat cells). The wells were duplicated, gently patted, mixed, and then placed into a 5% CO2 incubator at 37° C. for 1 h.
Anti-CD3 beads stimulation: Dynabeads anti-human CD3 was taken, shaken, and mixed for 60 s. The required volume of beads was pipetted, and an equal volume or at least 1 mL of washing solution was added to wash once. Fresh complete medium was then added to resuspend and adjust the density of the beads to 4×10^7/mL, and the beads were placed on ice for later use. At the end of drug pre-incubation, the cell culture plate was taken out. 10 μL Dynabeads anti-human CD3 was added to each well to treat the cells, and 10 μL the culture medium was added to the unstimulated group. The cell culture plate was shaken to mix well at 2500 rpm for 10 s, and then placed into a 5% CO2 incubator at 37° C. and continued to culture for 20 min.
Detection of p-SLP76 protein level: PathScan Phospho-SLP-76 (Ser376) Sandwich ELISA Kit was applied to detect p-SLP76 protein level. At the end of the Anti-CD3 beads stimulation, the cell culture plate was removed from the incubator. […] After lysis, the cell culture plate was centrifuged at 4° C., 400×g for 5 min. 25 μL of sample and 75 μL of sample diluent were added to each well, and the plate was placed in a 5% CO2 incubator at 37° C. for 2 h. The subsequent detection steps were carried out following the kit instructions, and the absorbance (OD value) of each well was read at 450 nm by a microplate reader.
Turning to `O=C(N1CCc2cc(-c3cnc4[nH]cc(Cl)c4n3)cc([C@@H]3COCCN3)c2C1)N1CC2CCC1CO2` (stereo partly drawn) [Compound Z550, (2-oxa-5-azabicyclo[2.2.2]octan-5-yl)(6-(7-chloro-5H-pyrrolo[2,3-b]pyrazin-2-yl)-8-((R)-morpholin-3-yl)-3,4-dihydroisoquinolin-2(1H)-yl)methanone], the pIC50 is 6.93.

`Cc1c[nH]c2ncc(-c3cc4c(c([C@@H]5COCCN5)c3)CN(C(=O)N3CC5CCC(C3)C5O)CC4)cc12` (stereo partly drawn) [Compound Z551, (8-hydroxy-3-azabicyclo[3.2.1]octan-3-yl)(6-(3-methyl-1H-pyrrolo[2,3-b]pyridin-5-yl)-8-((R)-morpholin-3-yl)-3,4-dihydroisoquinolin-2(1H)-yl)methanone] had a pIC50 of 6.30. `O=C(N1CCC(O)CC1)N1CCc2cc(-c3cnc4[nH]cc(Cl)c4c3)cc([C@@H]3COCCN3)c2C1` [Compound Z555, (R)-(6-(3-chloro-1H-pyrrolo[2,3-b]pyridin-5-yl)-8-(morpholin-3-yl)-3,4-dihydroisoquinolin-2(1H)-yl)(4-hydroxypiperidin-1-yl)methanone] showed a pIC50 of 6.32. The same measure, in the same setting: in the case of `Cc1c[nH]c2ncc(-c3cc4c(c([C@@H]5COCCN5)c3)CN(C(=O)N3CCC(O)CC3)CC4)cc12` [Compound Z556, (R)-(4-hydroxypiperidin-1-yl)(6-(3-methyl-1H-pyrrolo[2,3-b]pyridin-5-yl)-8-(morpholin-3-yl)-3,4-dihydroisoquinolin-2(1H)-yl)methanone] it was 6.02. With `Cc1c[nH]c2ncc(-c3cc4c(c([C@@H]5COCCN5)c3)CN(C(=O)N3CCC(O)C3)CC4)cc12` (stereo partly drawn) [Compound Z558, (3-hydroxypyrrolidin-1-yl)(6-(3-methyl-1H-pyrrolo[2,3-b]pyridin-5-yl)-8-((R)-morpholin-3-yl)-3,4-dihydroisoquinolin-2(1H)-yl)methanone], the pIC50 was 6.03. `Cc1c[nH]c2ncc(-c3cc4c(c([C@@H]5COCCN5)c3)CN(C(=O)N3CCOC5CC53)CC4)cc12` (stereo partly drawn) [Compound Z562, (2-oxa-5-azabicyclo[4.1.0]heptan-5-yl)(6-(3-methyl-1H-pyrrolo[2,3-b]pyridin-5-yl)-8-((R)-morpholin-3-yl)-3,4-dihydroisoquinolin-2(1H)-yl)methanone] showed a pIC50 of 6.83. On to `Cc1c[nH]c2ncc(-c3cc4c(c([C@@H]5COCCN5)c3)CN(C(=O)N3CC5(CCOCC5)C3)CC4)cc12` [Compound Z563, (R)-(6-(3-methyl-1H-pyrrolo[2,3-b]pyridin-5-yl)-8-(morpholin-3-yl)-3,4-dihydroisoquinolin-2(1H)-yl)(7-oxa-2-azaspiro[3.5]nonan-2-yl)methanone], for which the pIC50 was 6.76.

`Cc1c[nH]c2ncc(-c3cc4c(c([C@@H]5COCCN5)c3)CN(C(=O)N3CCC5(CCOCC5)C3)CC4)cc12` [Compound Z565, (R)-(6-(3-methyl-1H-pyrrolo[2,3-b]pyridin-5-yl)-8-(morpholin-3-yl)-3,4-dihydroisoquinolin-2(1H)-yl)(8-oxa-2-azaspiro[4.5]decan-2-yl)methanone] gave a pIC50 of 6.61. In turn, `CCc1c[nH]c2ncc(-c3cc4c(c([C@@H]5COCCN5)c3)CN(C(=O)c3cnc(C)nc3)CC4)cc12` [Compound Z567, (R)-(6-(3-ethyl-1H-pyrrolo[2,3-b]pyridin-5-yl)-8-(morpholin-3-yl)-3,4-dihydroisoquinolin-2(1H)-yl)(2-methylpyrimidin-5-yl)methanone] gave a negative logarithm of the IC50 (pIC50) of 6.90. Consider `CC1(C)CC(O)CN1C(=O)N1CCc2cc(-c3cnc4[nH]cc(Cl)c4n3)cc([C@@H]3COCCN3)c2C1` (stereo partly drawn) [Compound Z569, (6-(7-chloro-5H-pyrrolo[2,3-b]pyrazin-2-yl)-8-((R)-morpholin-3-yl)-3,4-dihydroisoquinolin-2(1H)-yl)(4-hydroxy-2,2-dimethylpyrrolidin-1-yl)methanone], for which the negative-log IC50 (pIC50) is 6.81. As for `C[C@H]1COCCN1C(=O)N1CCc2cc(-c3cnc4[nH]cc(Cl)c4n3)cc([C@@H]3COCCN3)c2C1` [Compound Z573], the negative logarithm of the IC50 (pIC50) is 6.91. Still for that read-out and setting: in the case of `CN1C2CCC1CN(C(=O)N1CCc3cc(-c4cnc5[nH]cc(Cl)c5n4)cc([C@@H]4COCCN4)c3C1)C2` [Compound Z575, (6-(7-chloro-5H-pyrrolo[2,3-b]pyrazin-2-yl)-8-((R)-morpholin-3-yl)-3,4-dihydroisoquinolin-2(1H)-yl)(8-methyl-3,8-diazabicyclo[3.2.1]octan-3-yl)methanone] it was 6.38; in that of `COc1c[nH]c2ncc(-c3cc4c(c([C@@H]5COCCN5)c3)CN(C(=O)C(C)(C)O)CC4)cc12` [Compound Z576, (R)-2-hydroxy-1-(6-(3-methoxy-1H-pyrrolo[2,3-b]pyridin-5-yl)-8-(morpholin-3-yl)-3,4-dihydroisoquinolin-2(1H)-yl)-2-methylpropan-1-one], 6.73. `Cc1cccnc1C#Cc1c[nH]c2ncc(-c3cc4c(c([C@@H]5COCCN5)c3)CN(C(=O)C(C)(C)O)CC4)cc12` [Compound Z578, (R)-2-hydroxy-2-methyl-1-(6-(3-50 ((3-methylpyridin-2-yl)ethynyl)-1H-pyrrolo[2,3-b]pyridin-5-yl)-8-(morpholin-3-yl)-3,4-dihydroisoquinolin-2(1H)-yl)propan-1-one] showed a negative-log IC50 (pIC50) of 6.79. Consider `Cc1c[nH]c2ncc(-c3cc4c(c([C@@H]5COCCN5)c3)CN(C(=O)N3CC5(COC5)C3)CC4)cc12` [Compound Z579, (R)-(6-(3-methyl-1H-pyrrolo[2,3-b]pyridin-5-yl)-8-(morpholin-3-yl)-3,4-dihydroisoquinolin-2(1H)-yl)(2-oxa-6-oxaspiro[3.3]heptan-6-yl)methanone], for which the negative logarithm of the IC50 (pIC50) is 6.56.

`COc1c[nH]c2ncc(-c3cc4c(c([C@@H]5COCCN5)c3)CN(C(=O)N3C5CCC3COC5)CC4)cc12` [Compound Z582] had a negative logarithm of the IC50 (pIC50) of 6.80. With `N#Cc1c[nH]c2ncc(-c3cc4c(c([C@@H]5COCCN5)c3)CN(C(=O)N3C5CCC3COC5)CC4)nc12` [Compound Z583, 2-(2-(3-oxa-8-azabicyclo[3.2.1]octane-8-carbonyl)-8-((R)-morpholin-3-yl)-1,2,3,4-tetrahydroisoquinolin-6-yl)-5H-pyrrolo[2,3-b]pyrazine-7-carbonitrile], the negative logarithm of the IC50 (pIC50) is 5.57.

Consider `O=C(N1CCc2cc(-c3cnc4[nH]cc(C(F)(F)F)c4n3)cc([C@@H]3COCCN3)c2C1)N1C2CCC1COC2` [Compound Z584, (3-oxa-8-azabicyclo[3.2.1]octan-8-yl)(8-((R)-morpholin-3-yl)-6-(7-(trifluoromethyl)-5H-pyrrolo[2,3-b]pyrazin-2-yl)-3,4-dihydroisoquinolin-2(1H)-yl)methanone], for which the negative logarithm of the IC50 (pIC50) was 6.90. For `COC1CCN(C(=O)N2CCc3cc(-c4cnc5[nH]cc(Cl)c5c4)cc([C@@H]4COCCN4)c3C2)CC1` [Compound Z589, (R)-(6-(3-chloro-1H-pyrrolo[2,3-b]pyridin-5-yl)-8-(morpholin-3-yl)-3,4-dihydroisoquinolin-2(1H)-yl)(4-methoxypiperidin-1-yl)methanone], the pIC50 is 6.61.

As to `COc1c[nH]c2ncc(-c3cc4c(c([C@@H]5COCCN5)c3)CN(C(=O)N3CC5CCC(C3)O5)CC4)cc12` [Compound Z592], the pIC50 is 6.67.

Regarding `CC(=O)c1c[nH]c2ncc(-c3cc4c(c([C@@H]5COCCN5)c3)CN(C(=O)C(C)(C)O)CC4)cc12` [Compound Z593, (R)-1-(6-(3-acetyl-1H-pyrrolo[2,3-b]pyridin-5-yl)-8-(morpholin-3-yl)-3,4-dihydroisoquinolin-2(1H)-yl)-2-hydroxy-2-methylpropan-1-one], the negative logarithm of the IC50 (pIC50) was 6.50.

For the compound `C#Cc1c[nH]c2ncc(-c3cc4c(c([C@@H]5COCCN5)c3)CN(C(=O)C(C)(C)O)CC4)cc12` [Compound Z594, (R)-1-(6-(3-ethynyl-1H-pyrrolo[2,3-b]pyridin-5-yl)-8-(morpholin-3-yl)-3,4-dihydroisoquinolin-2(1H)-yl)-2-hydroxy-2-methylpropan-1-one], the negative logarithm of the IC50 (pIC50) was 6.08. Still for that read-out and setting: in the case of `C[C@@H]1CN(C(=O)N2CCc3cc(-c4cnc5[nH]cc(Cl)c5c4)cc([C@@H]4COCCN4)c3C2)C[C@@H](C)O1` [Compound Z599, (6-(3-chloro-1H-pyrrolo[2,3-b]pyridin-5-yl)-8-((R)-morpholin-3-yl)-3,4-dihydroisoquinolin-2(1H)-yl)((2R,6R)-2,6-dimethylmorpholinyl)methanone] it was 6.74; in that of `C[C@H]1COCCN1C(=O)N1CCc2cc(-c3cnc4[nH]cc(Cl)c4c3)cc([C@@H]3COCCN3)c2C1` [Compound Z613], 6.87; in that of `Cc1c[nH]c2ncc(-c3cc4c(c([C@@H]5COCCN5)c3)CN(C(=O)[C@H]3CCOC3)CC4)nc12` [Compound Z630, (6-(7-methyl-5H-pyrrolo[2,3-b]pyrazin-2-yl)-8-((R)-morpholin-3-yl)-3,4-dihydroisoquinolin-2(1H)-yl)((S)-tetrahydrofuran-3-yl)methanone], 6.61. Same read-out and setting: in the case of `O=C([C@H]1CCOC1)N1CCc2cc(-c3cnc4[nH]cc(Cl)c4c3)cc([C@@H]3COCCN3)c2C1` [Compound Z631, (6-(3-chloro-1H-pyrrolo[2,3-b]pyridin-5-yl)-8-((R)-morpholin-3-yl)-3,4-dihydroisoquinolin-2(1H)-yl)((S)-tetrahydrofuran-3-yl)methanone] it was 6.62.

These data come from patent US20250084078A1, “FUSED RING-SUBSTITUTED SIX-MEMBERED HETEROCYCLIC COMPOUND, AND PREPARATION METHOD THEREFOR AND USE THEREOF” (GENFLEFT THERAPEUTICS (SHANGHAI) INC., priority 2022, published 2025).
